According to patent US10080784B2, “Enhanced therapeutic usage of a purine nucleoside phosphorylase or nucleoside hydrolase prodrug” (SOUTHERN RESEARCH INSTITUTE, priority 2011, dated 2018):
In brackets after ≈: the same amount, converted by molar mass. Entries after “also recorded” stand apart in the source; their conditions may differ.

Assays:
E. coli PNP [1] = target: T1, E. coli PNP (Escherichia coli, UniProt P0ABP8); test: Measurement of E. coli PNP activity in tumor extracts; assay type: biochemical; conditions: D54 tumors on day 20 after 2×10^11 VP Ad/PNP IT twice per day x3 days, FIG. 5A experiment
T1 construct: expressed in transfected cells; host or cells: D54MG human glioma cells, either stably transduced by lentivirus or transduced in vivo with adenoviral vector Ad/PNP, grown as xenografts in nude mice; Crude tumor extracts were assayed
Protocol: The proportion of lentiviral transduced cells in a tumor mass is verified by measuring E. coli PNP activity in representative cancers removed from mice on the first day of drug treatment. Crude extracts are prepared as described previously (Parker et al. Human Gene Therapy 1997; 8: 1637-1644) after tumor excision from the flanks of mice. […] The formation of MeP is monitored using reverse phase HPLC. By convention, one unit of PNP activity is defined as the amount of extract necessary to cleave 1 nmole of MeP-dR per mg protein in a 1 hour period.

[2] = system: D54 tumors that express E. coli PNP in 5% of the cells; test: Systemic intraperitoneal F-araAMP on D54 tumors expressing E. coli PNP in 5% of cells; assay type: in vivo, nude mice
Protocol: Intraperitoneal treatment with F-araAMP (250 mg/kg once per day for 3 consecutive days; 167 mg/kg 3 times per day for 3 consecutive days; 100 mg/kg 5 times a day for 3 consecutive days; or vehicle control 5 times a day×3 days) began on day 17 when tumors are approximately 250 mg. […] (FIG. 1)

[3] = system: D54 tumors in which 10% of the cells express E. coli PNP; test: Intratumoral injection into D54 tumors in which 10% of cells express E. coli PNP; assay type: in vivo, nude mice
Protocol: Parental and E. coli PNP expressing D54MG (human glioma) tumor cells (2×10^7 cells) are injected subcutaneously into the flanks of nude mice (nu/nu) purchased from Charles River Laboratories (Wilmington, Mass.). […] Tumors are measured with calipers and an estimate of the weight calculated using the equation, (length×width^2)/2=mm^3, and converted to mg assuming unit density. […] Each treatment arm of each group contained at least 6 mice. Mice are monitored daily for weight loss and twice weekly for tumor dimensions. T-C (tumor growth delay) is taken as the difference in days to 2 doublings between drug-treated and saline-treated groups. The time to the evaluation point for each animal (2 doublings) is used as the end point in a Student's t-test, the Mann-Whitney rank sum test, or a life table analysis in order to statistically compare growth data between treatment groups. […] Treatments are initiated when tumors are 250 to 300 mg (˜1-1.5% of total animal weight).

[4] = system: parental D54 tumors (no E. coli PNP expression); test: Intratumoral injection into parental D54 tumors (no E. coli PNP expression)
Protocol: Parental and E. coli PNP expressing D54MG (human glioma) tumor cells (2×10^7 cells) are injected subcutaneously into the flanks of nude mice (nu/nu) purchased from Charles River Laboratories (Wilmington, Mass.). D54 tumor cells stably transduced with E. coli PNP are prepared as described previously (Parker et al. Cancer Gene Therapy 2011 June; 18(6):390-8). Tumors are measured with calipers and an estimate of the weight calculated using the equation, (length×width^2)/2=mm^3, and converted to mg assuming unit density. […] Each treatment arm of each group contained at least 6 mice. Mice are monitored daily for weight loss and twice weekly for tumor dimensions. T-C (tumor growth delay) is taken as the difference in days to 2 doublings between drug-treated and saline-treated groups. The time to the evaluation point for each animal (2 doublings) is used as the end point in a Student's t-test, the Mann-Whitney rank sum test, or a life table analysis in order to statistically compare growth data between treatment groups. All procedures are performed in accordance with a protocol approved by the IACUC of Southern Research Institute. F-araAMP is obtained from Schering A.-G. (Berlin, Germany). In this and subsequent examples, F-Ade is obtained from General Intermediates of Canada, Inc. (Edmonton, Alberta, Canada). Treatments are initiated when tumors are 250 to 300 mg (˜1-1.5% of total animal weight).
In FIG. 2A, parental D54 tumor cells are mixed with D54 tumor cells that had been transduced with E. coli PNP to a final proportion in which 10% express the transgene. This 90/10 mixture is injected sc into the flanks of nude mice. Tumors are injected once per day for 3 consecutive days starting on day 14 with 150 μl of saline, 1.5 mg of F-araAMP dissolved in saline, or 3 mg of F-araAMP is dissolved in saline. […] In FIG. 2B, parental D54 tumor cells (no E. coli PNP expression) are injected sc into the flanks of nude mice. Tumors are inoculated once per day for 3 consecutive days starting on day 14 with 150 μl of saline, 3 mg F-araAMP is dissolved in saline, 0.15 mg of F-Ade dissolved in saline, 1.26 mg of F-Ade dissolved in […] DMSO, 0.63 mg of F-Ade dissolved in DMSO, or DMSO.
As noted above, the amount of F-araAMP given intratumorally (in FIG. 2A) is less than the total intraperitoneal dose described in FIG. 1. In order to investigate the impact of higher doses of F-araAMP, the F-araAMP is dissolved in DMSO, and given at concentrations well tolerated IT, but well above the maximally-tolerated dose if administered IP (Hong et al. Cancer Res. 2004; 64: 6610-6615). Three doses of 6 or 24 mg is administered by IT injection to tumors in which 10% of cells expressed E. coli PNP (FIG. 2C). Parental D54 tumor cells or mixtures of D54 tumor cells in which 10% of the cells express E. coli PNP are injected sc into the flanks of nude mice. Tumors are injected once per day for 3 consecutive days starting on day 17 with 150 μl of DMSO, 24 mg F-araAMP in DMSO, or 6 mg F-araAMP in DMSO.

[5] = system: D54 tumors in which 10% of cells express E. coli PNP; test: F-araAMP plus radiation on D54 tumors in which 10% of cells express E. coli PNP; conditions: 3 mg F-araAMP in saline x3, radiation 4 Gy x3, 3 hours after injection
Protocol: Locally advanced solid tumors often become resistant to radiation therapy. As a test of adjuvant E. coli PNP in this setting, F-araAMP injection together with external beam radiation is investigated.
D54 tumor cells in which 10% of cells expressed E. coli PNP are injected sc into the flanks of nude mice. The tumors are treated with radiation, F-araAMP, or F-araAMP plus radiation. In two treatment groups, tumors are injected once per day for 3 consecutive days with 150 μl of either saline or 3 mg F-araAMP dissolved in saline. In two other treatment groups radiation (4 Gy) is administered once per day for 3 consecutive days 3 hours after injection of 150 μl of either saline (filled squares) or 3 mg F-araAMP dissolved in saline (open squares).

D54 tumors = test: Radioactivity in tumors after intratumoral injection of [3H]F-araAMP, parental D54 tumors; assay type: in vivo, mice
Protocol: Total radioactivity is determined after injection of 3 mg [8-^3H]F-araAMP (10 μCi) into 300 mg D54 flank tumors. [8-^3H]F-araAMP is obtained from Moravek Biochemicals Inc. (Brea, Calif.). Tumors are removed from the mice at 10 minutes or 4 hours after injection and dissolved in 1 ml of Soluene 350 (Packard Instrument, Meriden, Conn.) by incubating at 55° C. for 4 hours. A portion of each extract is mixed with scintillation fluid and radioactivity determined.
In an effort to understand the pharmacodynamics of intratumoral (IT) F-araAMP, the levels of prodrug activation in parental (D54) tumors and tumors in which 10% of cells expressed E. coli PNP are monitored (Table 1). Tumor tissue is collected 10 minutes or 4 hours after IT injection of 3 mg [^3H]-F-araAMP and the amount of radioactivity remaining in the tumor mass determined.
Three mg (8,200 nmoles) of [^3H]F-araAMP (10 μCi/injection) are injected into D54 tumors or D54 tumors in which 10% of the cells express E. coli PNP as described in FIG. 2. Tumors (approximately 300 mg) are removed 10 minutes and 4 hours after injection with F-araAMP and the amount of radioactivity in each tumor determined. There are 4 tumors per group.

[6] = schedule q1d×3; cited from earlier work
[7] = Limit of solubility of F-Ade in water; assay type: physicochemical; conditions: dissolved in water
E. coli PNP [8] = target: T1, E. coli PNP; conditions: cited from earlier work

T1 sequence (P0ABP8 whole entry): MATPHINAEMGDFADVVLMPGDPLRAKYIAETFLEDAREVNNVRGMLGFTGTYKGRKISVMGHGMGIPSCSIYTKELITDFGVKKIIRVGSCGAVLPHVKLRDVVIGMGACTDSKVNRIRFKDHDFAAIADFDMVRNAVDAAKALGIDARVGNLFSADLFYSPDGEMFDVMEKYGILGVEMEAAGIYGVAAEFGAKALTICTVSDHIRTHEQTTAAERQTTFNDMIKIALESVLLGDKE

In the case of Ad/PNP, the “E. coli PNP activity in the tumors” value (E. coli PNP [1]) is reported as 7,500±2,000 units.

With `Nc1nc(F)nc2c1ncn2[C@@H]1O[C@H](COP(=O)(O)O)[C@@H](O)[C@@H]1O` [F-araAMP, fludarabine phosphate] the “Gross tissue damage in region surrounding the tumor” value ([2]; IP F-araAMP) was “no gross tissue damage”, the “Decrease in body weight” value ([2]; IP F-araAMP, quickly regained after schedule completed) was 10 to 20% and the “Tumor growth, P versus vehicle treated group” value ([2]; all IP F-araAMP groups (250 mg/kg x3, 167 mg/kg x9, 100 mg/kg x15 over 3 days), from day 17, FIG. 1) was less than 0.001. The Weight loss ([3]; 3 mg F-araAMP IT per injection, 3 total injections) was “less than 4%”, the “Tumor growth, P versus vehicle treated group” value ([3]; 3 mg F-araAMP in saline IT once per day x3 from day 14, FIG. 2A) was less than 0.001 and the “Tumor growth, P versus vehicle treated group” value ([3]; 6 mg F-araAMP in DMSO IT once per day x3 from day 17, FIG. 2C) was 0.014. For the same molecule, the Tumor ulcerations ([3]; 6 mg F-araAMP in DMSO IT x3) was “no ulcerations”, the “Tumor growth, P versus vehicle treated group” value ([3]; 24 mg F-araAMP in DMSO IT once per day x3 from day 17, FIG. 2C) was less than 0.001 and the “Tumors that became ulcerated” value ([3]; 24 mg F-araAMP in DMSO IT x3) was “Three of the 6”. The “Tumors completely regressed, mice tumor-free until day 70” value ([3]; 24 mg F-araAMP in DMSO IT x3, of 6 tumors, 3 sacrificed for ulceration) was 3 tumors, the “Decrease in body weight” value ([3]; F-araAMP IT at the highest dose (24 mg), recovered rapidly) was 7% and the “Tumor growth, P of 3 mg group versus 1.5 mg group” value ([3]; F-araAMP in saline IT once per day x3 from day 14, FIG. 2A) was 0.458. The “Effect on tumor growth” value ([4]; IT F-araAMP, FIGS. 2B, 2D and 3) was “no effect”, the “Tumor growth, P of radiation plus F-araAMP versus F-araAMP only” value [5] was 0.004 and the “Tumor growth, P of radiation plus F-araAMP versus radiation only” value [5] was less than 0.001. The “Radioactivity in tumor, nmoles F-araAMP/gram of tissue” value (D54 tumors; 10 min after IT injection of 3 mg [3H]F-araAMP) was 980 ± 730 nmoles F-araAMP/gram of tissue, the “Radioactivity in tumor, nmoles F-araAMP/gram of tissue” value (D54 tumors; 4 hours after IT injection of 3 mg [3H]F-araAMP) was 31 ± 6 nmoles F-araAMP/gram of tissue and the Maximally tolerated dose [6] was 750 mg/kg.

In the case of `Nc1nc(F)nc2nc[nH]c12` [F-Ade, 2-fluoroadenine], the “Tumor growth, P versus DMSO vehicle group” value ([4]; 0.63 mg F-Ade in DMSO IT once per day x3, FIG. 2B) is reported as 0.011, the Antitumor effect ([4]; F-Ade 0.15 ml of 1 mg/ml in water/saline (highest possible solubility) IT) is reported as “no antitumor effect; also recorded: fails to elicit antitumor activity” and the Antitumor effect ([4]; F-Ade in DMSO IT (0.15 ml of 8.6 mg/ml; 1.26 mg x3)) is reported as “modest antitumor effect; also recorded: minimal antitumor activity”. The “Maximally tolerated dose (MTD)” value ([4]; F-Ade in DMSO, three IT injections) was roughly 1.26 mg, the “Decrease in body weight” value ([4]; three IT injections of 1.26 mg F-Ade in DMSO) was 10% and the Death of mice ([4]; three IT injections of 2.5 mg F-Ade in DMSO) was 3 of 6. The Death of mice ([4]; three IT injections of 5 mg F-Ade in DMSO) was 4 of 6 and the solubility [7] was 1000 µg/mL (≈ 6.53 mM).

For `Nc1nc(F)nc2c1ncn2[C@H]1C[C@H](O)[C@@H](CO)O1` [F-dAdo, 2-F-2′-deoxyadenosine], the “Substrate for E. coli PNP compared with F-araA” value (E. coli PNP [8]) is listed as “much better substrate”.
